From patent US8501778B2, “Aralkyl piperidine derivatives and their uses as antalgic or ataractic agent” (priority 2008, dated 2013)
Where a name gives a salt, the structure may show the parent alone. Read-outs that look alike come from different tables or passages of the source. Marks after values point to notes of the source that are not given here.

Columns and labels:
Kunming mice [1] = experiment: Acetic Acid Twisting Method in mice (antalgic effect); format: in vivo; conditions: for inhibition in vivo at 10 mg/kg / inhibition in vivo at 20 mg/kg / inhibition in vivo at 40 mg/kg: Mus musculus; for antalgic: single dosage 20 mg/kg, acetic acid twisting, unit not given (method: inhibiting rate %)
Kunming mice [2] = experiment: Hot Plate Method in mice (antalgic effect); format: in vivo
mice [3] = conditions: mouse, in vivo
mice [4] = conditions: daily for eight days; III-15 60 mg/kg oral gavage, Morphine 10 mg/kg PO; Hot Plate 15 minutes after each administration
mice [5] = experiment: Jump test in mice (physical dependence, naloxone precipitated); conditions: III-15 seven times in two days, 20-120 mg/kg PO, naloxone 2 mg/kg i.v. three hours after last dosing
mice [6] = experiment: Conditioned Place Preference test in mice (psychological dependence); conditions: III-15 60 mg/kg oral gavage each day for six consecutive days
Kunming mice [7] = experiment: Sedative effect: spontaneous activity of the mice recorded with AC power tube; format: in vivo; conditions: single dosage 20 mg/kg, unit not given
Protocol: Kunming mice, clean class KM, purchased from Shanghai SLAC LABORATORY ANIMAL CO. LTD, breeding at general environment.
The compounds are formulated to solutions of 4 mg/ml, 2 mg/ml, and 1 mg/ml with water for injection. Animals in the control group and treatment group are all administered through subcutaneous injection at neck.
First of all, the mice in the treatment group are administrated with a solution of tested compounds (10 mg/kg, 20 mg/kg, 40 mg/kg) through subcutaneous injection at neck, the negative control group is administrated with physiological saline (20 ml/kg) orally, and the positive control group is administrated with Aspirin (20 ml/kg) orally. Each group is administrated with 10 ml/kg of 0.7% acetic acid via intraperitoneal injection (i.p.) after one hour. After 5 minutes, times of twisting response of each group of mice is recorded in 15 minutes, and twisting response inhibiting rate of each of the treatment groups is calculated according to the following equation: Inhibiting rate %=(average twisting times of negative control group−average twisting times of treated group)/average twisting times of negative control group×100% 6. A Sedative Effect is Evaluated by Using AC Power Tube to Record Spontaneous Activity of the Mice. 7. Testing the Antalgic and Sedative Effect of the Compounds with Single Dosage (20 mg/kg), See Table 2 for Details.

[8] = po, 10 mg/kg, gavage administration, mice, read-out: twisting response inhibiting rate (%)
[9] = po, 20 mg/kg, gavage administration, mice, read-out: twisting response inhibiting rate (%)
[10] = po, 40 mg/kg, gavage administration, mice, read-out: twisting response inhibiting rate (%)
[11] = Mus musculus, po, 1 h, 10 mg/kg, gavage administration, hot plate, read-out: Increasing rate of pain threshold (%)
[12] = Mus musculus, po, 1 h, 20 mg/kg, gavage administration, hot plate, read-out: Increasing rate of pain threshold (%)
[13] = sc, 10 mg/kg, subcutaneous injection at neck, mice, read-out: twisting response inhibiting rate (%)
[14] = sc, 20 mg/kg, subcutaneous injection at neck, mice, read-out: twisting response inhibiting rate (%)
[15] = sc, 40 mg/kg, subcutaneous injection at neck, mice, read-out: twisting response inhibiting rate (%)
[16] = Mus musculus, sc, 10 mg/kg, subcutaneous injection at neck, 1 hour after dosing, hot plate 55.5° C., read-out: Increasing rate of pain threshold (%)
[17] = Mus musculus, sc, 20 mg/kg, subcutaneous injection at neck, 1 hour after dosing, hot plate 55.5° C., read-out: Increasing rate of pain threshold (%)
[18] = Mus musculus, sc, 40 mg/kg, subcutaneous injection at neck, 1 hour after dosing, hot plate 55.5° C., read-out: Increasing rate of pain threshold (%)
[19] = sc, read-out: twisting response inhibiting rate (%)

## OC(CC1(O)CCN(C(c2ccccc2)c2ccccc2)CC1)c1ccccc1 (stereo not shown) [Compound V-3, N-diphenylmethyl-4-(2-hydroxy-2-phenylethyl)-4-piperidinol hydrochloride]
Kunming mice [1]; [8]
  inhibition in vivo at 10 mg/kg: 60.6%
Kunming mice [1]; [9]
  inhibition in vivo at 20 mg/kg: 49.8%
Kunming mice [1]; [10]
  inhibition in vivo at 40 mg/kg: 68.1%
Kunming mice [1]; sc, read-out: antalgic
  inhibition in vivo at 20 mg/kg: 84%
Kunming mice [2]; [11]
  change in vivo at 10 mg/kg: 64.1%
Kunming mice [2]; [12]
  change in vivo at 20 mg/kg: 86.8%
Kunming mice [2]; Mus musculus, po, 1 h, 40 mg/kg, gavage administration, hot plate, read-out: Increasing rate of pain threshold (%)
  change in vivo at 40 mg/kg: 136%

## O=C(CC1(O)CCN(Cc2ccc(F)cc2)CC1)c1ccccc1 [III-3, N-p-fluorobenzyl-4-benzoylmethyl-4-piperidinol hydrochloride]
Kunming mice [1]; sc, read-out: antalgic
  inhibition in vivo at 20 mg/kg: 76%
Kunming mice [1]; [13]
  inhibition in vivo at 10 mg/kg: 69.4%
Kunming mice [1]; [14]
  inhibition in vivo at 20 mg/kg: 77.2%
Kunming mice [1]; [15]
  inhibition in vivo at 40 mg/kg: 71.5%
Kunming mice [2]; [16]
  change in vivo at 10 mg/kg: 11.9%
Kunming mice [2]; [17]
  change in vivo at 20 mg/kg: 18.5%
Kunming mice [2]; [18]
  change in vivo at 40 mg/kg: 29.4%

## O=C(CC1(O)CCN(Cc2ccc([N+](=O)[O-])cc2)CC1)c1ccccc1 [III-4, N-p-nitrobenzyl-4-benzoylmethyl-4-piperidinol hydrochloride]
Kunming mice [1]; sc, read-out: antalgic
  inhibition in vivo at 20 mg/kg: 100%
Kunming mice [1]; [19]
  inhibition in vivo at 10 mg/kg: 100%
  inhibition in vivo at 20 mg/kg: 100%
  inhibition in vivo at 40 mg/kg: 100%
Kunming mice [2]; [16]
  change in vivo at 10 mg/kg: 19.8%
Kunming mice [2]; [17]
  change in vivo at 20 mg/kg: 6.47%
Kunming mice [2]; [18]
  change in vivo at 40 mg/kg: 15.9%

## COc1ccc(C(C)N2CCC(F)(CC(=O)c3ccccc3)CC2)cc1 (stereo not shown) [IX-1, N-(1-(p-methoxyphenyl)ethyl)-4-benzoylmethyl-4-fluoropiperidine hydrochloride]
Kunming mice [1]; sc, read-out: antalgic
  inhibition in vivo at 20 mg/kg: 76%
Kunming mice [1]; [13]
  inhibition in vivo at 10 mg/kg: 60.4%
Kunming mice [1]; [14]
  inhibition in vivo at 20 mg/kg: 68.7%
Kunming mice [1]; [15]
  inhibition in vivo at 40 mg/kg: 81%
Kunming mice [2]; [16]
  change in vivo at 10 mg/kg: 86.4%
Kunming mice [2]; [17]
  change in vivo at 20 mg/kg: 109%
Kunming mice [2]; [18]
  change in vivo at 40 mg/kg: 156%

## CN1CC[C@]23c4c5ccc(O)c4O[C@H]2[C@@H](O)C=C[C@H]3[C@H]1C5 [Morphine, reference compound]
Kunming mice [2]; Mus musculus, sc, 1 h, positive control, 2 mg/kg (remark), subcutaneous injection, hot plate, read-out: Increasing rate of pain threshold (%)
  change in vivo at 2 mg/kg: 202%
Mice [3]
  reversal of the antalgic effect by naloxone: is reversed by naloxone
Mice [4]
  change of pain threshold / antalgic effect on consecutive administration (drug resistance): reduces gradually starting from the second day of administration
Mice [5]
  jumping behavior after naloxone (physical dependence): obvious jumping behavior
Mice [6]
  Conditioned Place Preference (psychological dependence): show obvious Conditioned Place Preference

## O=C(CC1(O)CCN(C(c2ccccc2)c2ccccc2)CC1)c1ccccc1 [III-7, N-diphenylmethyl-4-benzoylmethyl-4-piperidinol hydrochloride]
Kunming mice [1]; [8]
  inhibition in vivo at 10 mg/kg: 25.8%
Kunming mice [1]; [9]
  inhibition in vivo at 20 mg/kg: 38%
Kunming mice [1]; [10]
  inhibition in vivo at 40 mg/kg: 44.2%
Kunming mice [1]; sc, read-out: antalgic
  inhibition in vivo at 20 mg/kg: 45%
Kunming mice [2]; [11]
  change in vivo at 10 mg/kg: 82.8%
Kunming mice [2]; [12]
  change in vivo at 20 mg/kg: 126%

## CC(c1ccc(N2CCOCC2)cc1)N1CCC(Cl)(CC(=O)c2ccccc2)CC1 (stereo not shown) [IX-7, N-(1-(4-morpholinophenyl)ethyl)-4-benzoylmethyl-4-chloropiperidine hydrochloride]
Kunming mice [1]; sc, read-out: antalgic
  inhibition in vivo at 20 mg/kg: 72%
Kunming mice [1]; [13]
  inhibition in vivo at 10 mg/kg: 66%
Kunming mice [1]; [14]
  inhibition in vivo at 20 mg/kg: 60.3%
Kunming mice [1]; [15]
  inhibition in vivo at 40 mg/kg: 76.4%
Kunming mice [2]; [16]
  change in vivo at 10 mg/kg: 79.5%
Kunming mice [2]; [17]
  change in vivo at 20 mg/kg: 101%
Kunming mice [2]; [18]
  change in vivo at 40 mg/kg: 130%

## COC1(CC(=O)c2ccccc2)CCN(Cc2ccc(NC(C)=O)cc2)CC1.Cl [VIII-1, N-p-acetylaminobenzyl-4-benzoylmethyl-4-methoxylpiperidine hydrochloride]
Kunming mice [1]; 10 mg/kg, subcutaneous injection at neck, mice
  twisting response inhibiting rate (%): 35.03* %
Kunming mice [1]; 20 mg/kg, subcutaneous injection at neck, mice
  twisting response inhibiting rate (%): 42.11%
Kunming mice [1]; 40 mg/kg, subcutaneous injection at neck, mice
  twisting response inhibiting rate (%): 57.69%
Kunming mice [1]; mice
  antalgic: 64
Kunming mice [7]
  sedative: 48
Kunming mice [2]; 10 mg/kg, subcutaneous injection at neck, 1 hour after dosing, hot plate 55.5° C.
  Increasing rate of pain threshold (%): 61.04%
Kunming mice [2]; 20 mg/kg, subcutaneous injection at neck, 1 hour after dosing, hot plate 55.5° C.
  Increasing rate of pain threshold (%): 76.63* %
Kunming mice [2]; 40 mg/kg, subcutaneous injection at neck, 1 hour after dosing, hot plate 55.5° C.
  Increasing rate of pain threshold (%): 105.20* %

## CC(=O)Nc1ccc(CN2CCC(O)(CC(O)c3ccccc3)CC2)cc1.Cl (stereo not shown) [Compound V-2, N-p-acetylaminobenzyl-4-(2-hydroxy-2-phenylethyl)-4-piperidinol hydrochloride]
Kunming mice [1]; mice
  antalgic: 80
Kunming mice [7]
  sedative: 39.6

## CC(=O)Nc1ccc(CN2CCC(O)(CC(=O)c3ccccc3)CC2)cc1.Cl [III-6, N-p-acetylaminobenzyl-4-benzoylmethyl-4-piperidinol hydrochloride]
Kunming mice [1]; mice
  antalgic: 45
Kunming mice [7]
  sedative: 75

## CC(c1ccc(N2CCOCC2)cc1)N1CCC(F)(CC(=O)c2ccccc2)CC1 (stereo not shown) [IX-3, N-(1-(4-morpholinophenyl)ethyl)-4-benzoylmethyl-4-fluoropiperidine hydrochloride]
Kunming mice [1]; sc, read-out: antalgic
  inhibition in vivo at 20 mg/kg: 64%

## C[C@H](c1ccccc1)N1CCC(O)(CC(=O)c2ccccc2)CC1 [III-17, (R)—N-(1-phenylethyl)-4-benzoylmethyl-4-piperidinol hydrochloride]
Kunming mice [1]; sc, read-out: antalgic
  inhibition in vivo at 20 mg/kg: 66%

## O=C(CC1(O)CCN(Cc2ccc(Cl)cc2)CC1)c1ccccc1 [III-2, N-p-chlorobenzyl-4-benzoylmethyl-4-piperidinol hydrochloride]
Kunming mice [1]; sc, read-out: antalgic
  inhibition in vivo at 20 mg/kg: 14%

## O=C(CC1(O)CCN(Cc2ccccc2)CC1)c1ccc2c(c1)CCN2 [III-37, N-benzyl-4-(2-(5-indolinyl)-2-oxoethyl)-4-piperidinol hydrochloride]
Kunming mice [1]; sc, read-out: antalgic
  inhibition in vivo at 20 mg/kg: 52%

## Nc1ccc(CN2CCC(O)(CC(=O)c3ccccc3)CC2)cc1 [III-5, N-p-aminobenzyl-4-benzoylmethyl-4-piperidinol hydrochloride]
Kunming mice [1]; sc, read-out: antalgic
  inhibition in vivo at 20 mg/kg: 100%
Kunming mice [1]; [19]
  inhibition in vivo at 10 mg/kg: 100%
  inhibition in vivo at 20 mg/kg: 100%
  inhibition in vivo at 40 mg/kg: 100%
Kunming mice [2]; [16]
  change in vivo at 10 mg/kg: 58.3%
Kunming mice [2]; [17]
  change in vivo at 20 mg/kg: 75.6%
Kunming mice [2]; [18]
  change in vivo at 40 mg/kg: 190%

## O=C(CC1(O)CCN(Cc2ccccc2)CC1)c1ccccc1 [III-1, N-benzyl-4-benzoylmethyl-4-piperidinol hydrochloride]
Kunming mice [1]; sc, read-out: antalgic
  inhibition in vivo at 20 mg/kg: 62%
Kunming mice [1]; [13]
  inhibition in vivo at 10 mg/kg: 73.3%
Kunming mice [1]; [14]
  inhibition in vivo at 20 mg/kg: 59.4%
Kunming mice [1]; [15]
  inhibition in vivo at 40 mg/kg: 91.1%
Kunming mice [2]; [16]
  change in vivo at 10 mg/kg: 99.7%
Kunming mice [2]; [17]
  change in vivo at 20 mg/kg: 89%
Kunming mice [2]; [18]
  change in vivo at 40 mg/kg: 148%

## COc1cc(CN2CCC(O)(CC(=O)c3ccccc3)CC2)cc(OC)c1OC [III-14, N-(3,4,5-trimethoxybenzyl)-4-benzoylmethyl-4-piperidinol hydrochloride]
Kunming mice [1]; sc, read-out: antalgic
  inhibition in vivo at 20 mg/kg: 54%

## CC(c1ccc(N)cc1)N1CCC(O)(CC(=O)c2ccccc2)CC1 (stereo not shown) [III-21, N-(1-(4-aminophenyl)ethyl)-4-benzoylmethyl-4-piperidinol hydrochloride]
Kunming mice [1]; sc, read-out: antalgic
  inhibition in vivo at 20 mg/kg: 57%

## O=C(CC1(O)CCN(Cc2ccc3c(c2)CCN3)CC1)c1ccccc1 [III-30, N-(5-indolinyl)methyl-4-benzoylmethyl-4-piperidinol hydrochloride]
Kunming mice [1]; sc, read-out: antalgic
  inhibition in vivo at 20 mg/kg: 42%

## O=C(CC1(O)CCN(Cc2ccc(N3CCCCC3)cc2)CC1)c1ccccc1 [III-28, N-(4-(1-piperidinyl)benzyl)-4-benzoylmethyl-4-piperidinol hydrochloride]
Kunming mice [1]; sc, read-out: antalgic
  inhibition in vivo at 20 mg/kg: 64%

## COc1ccccc1N1CCC(O)(CC(=O)c2ccccc2)CC1 [III-12, N-(2′-methoxyphenyl)-4-benzoylmethyl-4-piperidinol hydrochloride]
Kunming mice [1]; sc, read-out: antalgic
  inhibition in vivo at 20 mg/kg: 21%

## COc1ccc(C(C)N2CCC(O)(CC(=O)c3ccccc3)CC2)cc1 (stereo not shown) [III-19, N-(1-(4-methoxyphenyl)ethyl)-4-benzoylmethyl-4-piperidinol hydrochloride]
Kunming mice [1]; sc, read-out: antalgic
  inhibition in vivo at 20 mg/kg: 91%
